Results: patent US20240218022A1, “ANTI-VISTA MACROCYCLIC PEPTIDES AND COMPOSITIONS” (BRISTOL-MYERS SQUIBB COMPANY, priority 2022, published 2024)
pIC50: −log10 of the molar value. Starred links: 1 amine or outer side, 2 acyl side, 3 side chain; linkers in the order of their positions; H or OH if unused. Positions of bridges follow the written chain, without caps; N, C: chain ends. Non-standard residues stand in square brackets, D forms with d. Residues, ends and D or L forms follow the SMILES beside them. ξ: configuration not given here. Morpholine(3S-CO) = O=C(O)[C@@H]1COCCN1; 2Nal = N[C@@H](Cc1ccc2ccccc2c1)C(=O)O; βAsp = O=C(O)[C@H](CC(=O)[*:2])N[*:1]; Pro(4ξ-F) = O=C(O)[C@@H]1CC(F)CN1; Ahp(2) = CCCCC[C@H](N)C(=O)O; NMeNle = CCCC[C@H](NC)C(=O)O; Tle = CC(C)(C)[C@H](N)C(=O)O; NHexGly = CCCCCCNCC(=O)O; Nle = CCCC[C@H](N)C(=O)O; Aun = NCCCCCCCCCCC(=O)O; AEEA = NCCOCCOCC(=O)O

These compounds were tested against T1, mouse VISTA (mVISTA) (Mus musculus, UniProt Q9D659) (assay: Cell-Based Binding High-Content Assay For mVISTA (HC CBA mVISTA)). Conditions: read-out: HC CBA mVISTA IC50.
T1 construct: expressed in transfected cells; host or cells: Human embryonic kidney 293T cells
T1 sequence (Q9D659 33-308): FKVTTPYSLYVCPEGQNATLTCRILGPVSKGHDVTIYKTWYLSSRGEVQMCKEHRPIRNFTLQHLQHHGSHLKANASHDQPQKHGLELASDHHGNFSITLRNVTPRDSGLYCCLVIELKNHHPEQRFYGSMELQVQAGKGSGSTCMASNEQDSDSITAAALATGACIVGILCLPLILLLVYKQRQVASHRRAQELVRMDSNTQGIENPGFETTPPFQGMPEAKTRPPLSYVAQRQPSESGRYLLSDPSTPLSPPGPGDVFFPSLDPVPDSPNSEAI
Summary of the method: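 Competition of compound with a biotinylated peptide (final 2 nM, 30 min at RT) for binding to mVISTA on 293T cells, run under no-wash or wash (1 h compound preincubation then removal) formats. Readout by Alexa 647–streptavidin imaging on a high-content platform; four-parameter logistic fit gave IC50.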

SMILES	pIC50
CCCCCCN1CC(=O)N[C@@H](Cc2ccc(O)cc2)C(=O)N[C@@H](CCCC)C(=O)N[C@@H](CC(N)=O)C(=O)N[C@@H](CCCNC(=N)N)C(=O)N(C)[C@@H](CCCC)C(=O)N[C@@H](CCCCC)C(=O)N2CCOC[C@H]2C(=O)N[C@@H](C(C)C)C(=O)N[C@@H](CO)C(=O)N[C@H](C(=O)N[C@@H](CC(=O)NCCOCCOCC(=O)NCCCCCCCCCCC(=O)O)C(=O)O)CSCC(=O)N[C@@H](Cc2ccccc2)C(=O)N[C@@H](Cc2c[nH]c3ccccc23)C(=O)N[C@@H](CC(=O)O)C1=O [Example 2193] ({CH2CO}-FWD[NHexGly]Y[Nle]NR[NMeNle][Ahp(2)][Morpholine(3S-CO)]VSC[βAsp][AEEA][Aun]-OH; thioether N-14)	7.79
CCCCCCN1CC(=O)N[C@@H](Cc2ccc(O)cc2)C(=O)N[C@@H](CCCC)C(=O)N[C@@H](CC(N)=O)C(=O)N[C@@H](CCCNC(=N)N)C(=O)N(C)[C@@H](CCCC)C(=O)N[C@@H](CCCCC)C(=O)N2CC(F)C[C@H]2C(=O)N[C@@H](C(C)(C)C)C(=O)N[C@@H](CO)C(=O)N[C@H](C(=O)N[C@@H](CC(=O)NCCOCCOCC(=O)NCCCCCCCCCCC(=O)O)C(=O)O)CSCC(=O)N[C@@H](Cc2ccccc2)C(=O)N[C@@H](Cc2c[nH]c3ccccc23)C(=O)N[C@@H](CC(=O)O)C1=O (some centres unmarked) [Example 2194] ({CH2CO}-FWD[NHexGly]Y[Nle]NR[NMeNle][Ahp(2)][Pro(4ξ-F)][Tle]SC[βAsp][AEEA][Aun]-OH; thioether N-14)	7.41
CCCCCCN1CC(=O)N[C@@H](Cc2ccc(O)cc2)C(=O)N[C@@H](CCCC)C(=O)N[C@@H](CC(N)=O)C(=O)N[C@@H](CCCNC(=N)N)C(=O)N(C)[C@@H](CCCC)C(=O)N[C@@H](CCCCC)C(=O)N2CCC[C@H]2C(=O)N[C@@H](C(C)(C)C)C(=O)N[C@@H](CO)C(=O)N[C@H](C(=O)N[C@@H](CC(=O)NCCOCCOCC(=O)NCCCCCCCCCCC(=O)O)C(=O)O)CSCC(=O)N[C@@H](Cc2ccc3ccccc3c2)C(=O)N[C@@H](Cc2ccc(O)cc2)C(=O)N[C@@H](CC(=O)O)C1=O [Example 2195] ({CH2CO}-[2Nal]YD[NHexGly]Y[Nle]NR[NMeNle][Ahp(2)]P[Tle]SC[βAsp][AEEA][Aun]-OH; thioether N-14)	7.52

Second part, the compound after the results:

pIC50	SMILES
7.71	CCCCCCN1CC(=O)N[C@@H](Cc2ccc(O)cc2)C(=O)N[C@@H](CCCC)C(=O)N[C@@H](CC(N)=O)C(=O)N[C@@H](CCCNC(=N)N)C(=O)N(C)[C@@H](CCCC)C(=O)N[C@@H](CCCCC)C(=O)N2CCC[C@H]2C(=O)N[C@@H](C(C)(C)C)C(=O)N[C@@H](CO)C(=O)N[C@H](C(=O)N[C@@H](CC(=O)NCCOCCOCC(=O)NCCCCCCCCCCC(=O)O)C(=O)O)CSCC(=O)N[C@@H](Cc2ccccc2)C(=O)N[C@@H](Cc2c[nH]c3ccccc23)C(=O)N[C@@H](CC(=O)O)C1=O [Example 2191] ({CH2CO}-FWD[NHexGly]Y[Nle]NR[NMeNle][Ahp(2)]P[Tle]SC[βAsp][AEEA][Aun]-OH; thioether N-14)
7.73	CCCCCCN1CC(=O)N[C@@H](Cc2ccc(O)cc2)C(=O)N[C@@H](CCCC)C(=O)N[C@@H](CC(N)=O)C(=O)N[C@@H](CCCNC(=N)N)C(=O)N(C)[C@@H](CCCC)C(=O)N[C@@H](CCCCC)C(=O)N2CCOC[C@H]2C(=O)N[C@@H](C(C)(C)C)C(=O)N[C@@H](CO)C(=O)N[C@H](C(=O)N[C@@H](CC(=O)NCCOCCOCC(=O)NCCCCCCCCCCC(=O)O)C(=O)O)CSCC(=O)N[C@@H](Cc2ccccc2)C(=O)N[C@@H](Cc2c[nH]c3ccccc23)C(=O)N[C@@H](CC(=O)O)C1=O [Example 2192] ({CH2CO}-FWD[NHexGly]Y[Nle]NR[NMeNle][Ahp(2)][Morpholine(3S-CO)][Tle]SC[βAsp][AEEA][Aun]-OH; thioether N-14)
